# Measurements reported in PMC7818428, “Potential Dental Biofilm Inhibitors: Dynamic Combinatorial Chemistry Affords Sugar‐Based Molecules that Target Bacterial Glucosyltransferase” (Chemmedchem, 2020).
# Target: T1, GTF180-ΔN (GTF180) (Limosilactobacillus reuteri, UniProt Q5SBN3)
# T1 construct: N-terminally truncated GTF180-ΔN (catalytic and C-terminal domains), 117 kDa
# Experiment: UPLC-MS of dynamic combinatorial library (cleavage to A1H8)
# Assay type: biochemical
# Conditions: 30 μM protein, mixture of library members with 10 mM aniline, pH 5.2, 10 % DMSO, room temperature
# T1 sequence (Q5SBN3 entry or part of it, stated change not applied): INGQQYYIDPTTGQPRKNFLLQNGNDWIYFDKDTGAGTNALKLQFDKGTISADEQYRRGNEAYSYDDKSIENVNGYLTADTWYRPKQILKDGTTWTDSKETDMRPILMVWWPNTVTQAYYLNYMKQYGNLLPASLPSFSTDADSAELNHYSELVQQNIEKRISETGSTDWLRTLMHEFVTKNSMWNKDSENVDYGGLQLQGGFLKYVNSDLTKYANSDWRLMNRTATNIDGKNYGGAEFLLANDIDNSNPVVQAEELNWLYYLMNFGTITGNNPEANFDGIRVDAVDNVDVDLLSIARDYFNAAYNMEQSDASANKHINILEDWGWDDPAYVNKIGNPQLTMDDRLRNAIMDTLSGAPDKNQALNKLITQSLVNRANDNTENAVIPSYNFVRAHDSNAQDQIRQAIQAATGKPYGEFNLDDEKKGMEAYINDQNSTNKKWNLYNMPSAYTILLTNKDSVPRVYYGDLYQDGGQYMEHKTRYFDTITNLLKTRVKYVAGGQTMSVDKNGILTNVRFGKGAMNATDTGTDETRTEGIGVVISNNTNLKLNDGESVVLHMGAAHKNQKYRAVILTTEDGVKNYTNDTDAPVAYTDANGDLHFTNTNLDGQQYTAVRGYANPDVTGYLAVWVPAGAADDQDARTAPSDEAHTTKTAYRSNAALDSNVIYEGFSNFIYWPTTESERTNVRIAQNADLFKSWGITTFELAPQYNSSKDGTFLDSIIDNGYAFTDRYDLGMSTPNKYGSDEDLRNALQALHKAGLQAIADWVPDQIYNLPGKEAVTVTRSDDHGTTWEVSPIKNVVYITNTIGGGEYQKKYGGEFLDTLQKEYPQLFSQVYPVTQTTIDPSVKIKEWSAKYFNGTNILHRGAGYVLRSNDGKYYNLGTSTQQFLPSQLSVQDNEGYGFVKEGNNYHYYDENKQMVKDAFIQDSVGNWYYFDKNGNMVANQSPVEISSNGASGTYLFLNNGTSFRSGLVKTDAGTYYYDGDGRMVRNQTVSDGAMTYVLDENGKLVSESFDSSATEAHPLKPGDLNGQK
smiles,measurement,value
O=C(CC1CCCC1)N/N=C/c1ccc(O[C@@H]2O[C@H](CO)[C@@H](O[C@H]3O[C@H](CO)[C@@H](O)[C@H](O)[C@H]3O)[C@H](O)[C@H]2O)cc1 [A2H8],UPLC-MS of dynamic combinatorial library (cleavage to A1H8),maltose‐derived acylhydrazones A2H2 and A2H8 with a lipophilic
